# Data published in paper PMC5291709, “Structure of the active form of human origin recognition complex and its ATPase motor module” (eLife, 2017).
# Numbering of substitutions follows the chain as printed.
# Columns and labels:
# HsORC1-5 = biological target: T1, HsORC1-5 (Homo sapiens, UniProt O43913+O43929+Q13415, Q13415:R720Q); assay: radiolabelled ATPase assay, TLC; assay type: biochemical; details: 50 mM Hepes-NaOH pH 7.5, 200 mM KCl, 5 mM MgCl2, 5 mM DTT, 37 C, 12.5-200 uM ATP, 10 uM complex; [gamma-32P]ATP tracer; ORC1/4 interface; Meier-Gorlin Syndrome mutant
# T1 construct: gene ORC1; heteropentamer without ORC6; Sf9 insect cells; with Origin recognition complex subunit 5; Origin recognition complex subunit 2; Origin recognition complex subunit 3
# T1 sequence (O43913 whole entry, one chain of several): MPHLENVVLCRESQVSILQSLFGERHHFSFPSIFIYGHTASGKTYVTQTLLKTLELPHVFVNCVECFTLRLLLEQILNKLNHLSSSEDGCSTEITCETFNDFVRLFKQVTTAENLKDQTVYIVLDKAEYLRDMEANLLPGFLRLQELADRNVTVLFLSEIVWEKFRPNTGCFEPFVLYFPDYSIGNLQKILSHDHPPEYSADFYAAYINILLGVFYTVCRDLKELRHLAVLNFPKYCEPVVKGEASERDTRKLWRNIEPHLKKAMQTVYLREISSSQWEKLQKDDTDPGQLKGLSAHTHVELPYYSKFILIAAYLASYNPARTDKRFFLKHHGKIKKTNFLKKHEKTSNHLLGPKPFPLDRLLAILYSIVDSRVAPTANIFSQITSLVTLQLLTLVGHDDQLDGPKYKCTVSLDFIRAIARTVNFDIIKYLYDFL
# T1 sequence (Q13416 whole entry partner, one chain of several): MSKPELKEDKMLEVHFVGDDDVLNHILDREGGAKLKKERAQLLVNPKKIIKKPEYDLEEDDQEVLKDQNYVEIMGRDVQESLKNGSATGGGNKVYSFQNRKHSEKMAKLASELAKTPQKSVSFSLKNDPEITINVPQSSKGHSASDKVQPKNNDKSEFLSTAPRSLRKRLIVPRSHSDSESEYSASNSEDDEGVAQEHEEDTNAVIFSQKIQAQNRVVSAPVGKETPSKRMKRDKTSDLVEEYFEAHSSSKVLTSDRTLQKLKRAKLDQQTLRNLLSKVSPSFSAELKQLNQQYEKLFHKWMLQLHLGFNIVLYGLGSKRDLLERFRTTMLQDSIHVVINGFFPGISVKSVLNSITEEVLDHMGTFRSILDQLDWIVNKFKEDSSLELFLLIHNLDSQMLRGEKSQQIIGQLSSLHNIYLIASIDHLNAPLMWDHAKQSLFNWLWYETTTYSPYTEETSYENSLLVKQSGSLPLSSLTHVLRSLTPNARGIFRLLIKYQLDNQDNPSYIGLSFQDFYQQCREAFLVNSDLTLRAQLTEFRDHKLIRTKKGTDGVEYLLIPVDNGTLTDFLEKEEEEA
# T1 sequence (Q9UBD5 whole entry partner, one chain of several): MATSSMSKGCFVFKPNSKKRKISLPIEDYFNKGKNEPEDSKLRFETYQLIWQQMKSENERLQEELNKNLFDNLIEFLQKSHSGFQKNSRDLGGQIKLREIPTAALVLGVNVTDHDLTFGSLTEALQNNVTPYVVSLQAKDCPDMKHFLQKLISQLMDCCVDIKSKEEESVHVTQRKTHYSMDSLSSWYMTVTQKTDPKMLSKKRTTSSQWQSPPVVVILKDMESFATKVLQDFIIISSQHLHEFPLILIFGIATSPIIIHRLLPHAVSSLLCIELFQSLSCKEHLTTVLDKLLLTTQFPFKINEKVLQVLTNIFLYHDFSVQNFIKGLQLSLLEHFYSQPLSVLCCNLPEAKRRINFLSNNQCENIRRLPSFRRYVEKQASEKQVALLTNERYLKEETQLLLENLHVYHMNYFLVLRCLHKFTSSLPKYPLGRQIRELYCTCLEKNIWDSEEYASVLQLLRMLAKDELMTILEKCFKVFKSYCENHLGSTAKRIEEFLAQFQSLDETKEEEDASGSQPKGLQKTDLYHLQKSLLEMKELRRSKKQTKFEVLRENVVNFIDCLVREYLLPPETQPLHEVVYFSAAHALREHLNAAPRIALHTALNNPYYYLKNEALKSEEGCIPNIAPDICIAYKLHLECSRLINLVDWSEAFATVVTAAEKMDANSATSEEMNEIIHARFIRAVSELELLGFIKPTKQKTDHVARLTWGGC
# [1] = biological target: T2, HsORC motor module (HsORC1/4/5) (Homo sapiens, UniProt O43913+O43929+Q13415, Q13415:R720Q); assay: radiolabelled ATPase assay, TLC; assay type: biochemical; details: 50 mM Hepes-NaOH pH 7.5, 200 mM KCl, 5 mM MgCl2, 5 mM DTT, 37 C, 12.5-200 uM ATP, 10 uM complex; [gamma-32P]ATP tracer; ORC1/4 interface; Meier-Gorlin Syndrome mutant (sensor-2 trigger)
# T2 construct: gene ORC1; ORC1 471-861 (BAH domain removed), ORC4 full-length 1-436, ORC5 1-284 (WHD removed); Sf9 insect cells, two-Strep-SumoStar tag on ORC1 cleaved; heterotrimer
# T2 sequence (Q13415 471-861 R720Q): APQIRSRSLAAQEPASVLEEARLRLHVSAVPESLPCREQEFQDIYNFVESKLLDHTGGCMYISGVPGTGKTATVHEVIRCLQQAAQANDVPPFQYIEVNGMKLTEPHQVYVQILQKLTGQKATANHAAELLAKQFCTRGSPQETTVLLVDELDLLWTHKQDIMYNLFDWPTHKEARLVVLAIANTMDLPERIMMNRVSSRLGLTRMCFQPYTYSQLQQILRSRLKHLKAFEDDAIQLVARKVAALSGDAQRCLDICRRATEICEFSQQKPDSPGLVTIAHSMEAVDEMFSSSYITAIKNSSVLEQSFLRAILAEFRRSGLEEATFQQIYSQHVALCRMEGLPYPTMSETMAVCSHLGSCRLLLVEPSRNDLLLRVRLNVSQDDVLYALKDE
# T2 sequence (O43929 1-436): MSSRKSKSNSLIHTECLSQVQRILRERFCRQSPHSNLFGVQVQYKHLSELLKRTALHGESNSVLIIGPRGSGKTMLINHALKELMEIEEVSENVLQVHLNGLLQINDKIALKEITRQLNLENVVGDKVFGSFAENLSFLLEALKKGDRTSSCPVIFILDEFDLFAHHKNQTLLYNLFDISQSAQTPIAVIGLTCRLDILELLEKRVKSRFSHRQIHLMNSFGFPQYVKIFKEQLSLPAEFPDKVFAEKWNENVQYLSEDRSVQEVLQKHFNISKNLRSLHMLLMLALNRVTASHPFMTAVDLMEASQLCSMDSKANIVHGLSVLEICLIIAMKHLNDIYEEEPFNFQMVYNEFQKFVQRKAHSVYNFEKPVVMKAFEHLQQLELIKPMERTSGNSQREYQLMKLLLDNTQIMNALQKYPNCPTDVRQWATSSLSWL
# T2 sequence (O43913 1-284): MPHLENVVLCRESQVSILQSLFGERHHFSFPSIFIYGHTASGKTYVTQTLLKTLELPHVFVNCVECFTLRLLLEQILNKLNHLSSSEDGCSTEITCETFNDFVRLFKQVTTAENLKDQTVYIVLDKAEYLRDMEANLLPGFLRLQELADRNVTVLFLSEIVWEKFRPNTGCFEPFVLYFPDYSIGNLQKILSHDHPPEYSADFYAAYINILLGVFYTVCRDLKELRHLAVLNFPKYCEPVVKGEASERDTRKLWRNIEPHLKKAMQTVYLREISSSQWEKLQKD
# [2] = biological target: T3, HsORC motor module (HsORC1/4/5) (Homo sapiens, UniProt O43913+O43929+Q13415); assay: X-ray crystal structure, […] A; assay type: binding; details: unhydrolysed ATP at the ORC1/ORC4 and ORC4/ORC5 interfaces and on ORC5; Mg2+
# T3 construct: gene ORC1; ORC1 471-861 (BAH domain removed), ORC4 full-length 1-436, ORC5 1-284 (WHD removed); Sf9 insect cells, two-Strep-SumoStar tag on ORC1 cleaved; heterotrimer
# T3 sequence (Q13415 471-861): T2 sequence (Q13415 471-861 R720Q) with Q250R
# T3 sequence (O43929 1-436): T2 sequence (O43929 1-436)
# T3 sequence (O43913 1-284): T2 sequence (O43913 1-284)
# [3] = biological target: T4, HsORC motor module (HsORC1/4/5) (Homo sapiens, UniProt O43913+O43929+Q13415, O43929:Y174C); assay: radiolabelled ATPase assay, TLC, Michaelis-Menten fit; assay type: biochemical; details: 50 mM Hepes-NaOH pH 7.5, 200 mM KCl, 5 mM MgCl2, 5 mM DTT, 37 C, 12.5-200 uM ATP, 10 uM complex; [gamma-32P]ATP tracer; ORC1/4 interface; Meier-Gorlin Syndrome mutant
# T4 construct: gene ORC1; ORC1 471-861 (BAH domain removed), ORC4 full-length 1-436, ORC5 1-284 (WHD removed); Sf9 insect cells, two-Strep-SumoStar tag on ORC1 cleaved; heterotrimer
# T4 sequence (Q13415 471-861): T2 sequence (Q13415 471-861 R720Q) with Q250R
# T4 sequence (O43929 1-436 Y174C): T2 sequence (O43929 1-436) with Y174C
# T4 sequence (O43913 1-284): T2 sequence (O43913 1-284)
# [4] = biological target: T5, HsORC motor module (HsORC1/4/5) (Homo sapiens, UniProt O43913+O43929+Q13415, O43929:D159A/Q13415:D620A); assay: radiolabelled ATPase assay, TLC; assay type: biochemical; details: 50 mM Hepes-NaOH pH 7.5, 200 mM KCl, 5 mM MgCl2, 5 mM DTT, 37 C, 12.5-200 uM ATP, 10 uM complex; [gamma-32P]ATP tracer; ORC1/4 interface; double Walker-B mutant
# T5 construct: gene ORC1; ORC1 471-861 (BAH domain removed), ORC4 full-length 1-436, ORC5 1-284 (WHD removed); Sf9 insect cells, two-Strep-SumoStar tag on ORC1 cleaved; heterotrimer
# T5 sequence (Q13415 471-861 D620A): T2 sequence (Q13415 471-861 R720Q) with D150A, Q250R
# T5 sequence (O43929 1-436 D159A): T2 sequence (O43929 1-436) with D159A
# T5 sequence (O43913 1-284): T2 sequence (O43913 1-284)
# [5] = biological target: T6, HsORC motor module (HsORC1/4/5) (Homo sapiens, UniProt O43913+O43929+Q13415, Q13415:D620A); assay: radiolabelled ATPase assay, TLC; assay type: biochemical; details: 50 mM Hepes-NaOH pH 7.5, 200 mM KCl, 5 mM MgCl2, 5 mM DTT, 37 C, 12.5-200 uM ATP, 10 uM complex; [gamma-32P]ATP tracer; ORC1/4 interface; Walker-B mutant
# T6 construct: gene ORC1; ORC1 471-861 (BAH domain removed), ORC4 full-length 1-436, ORC5 1-284 (WHD removed); Sf9 insect cells, two-Strep-SumoStar tag on ORC1 cleaved; heterotrimer
# T6 sequence (Q13415 471-861 D620A): T2 sequence (Q13415 471-861 R720Q) with D150A, Q250R
# T6 sequence (O43929 1-436): T2 sequence (O43929 1-436)
# T6 sequence (O43913 1-284): T2 sequence (O43913 1-284)
structure (smiles),measurement,setting,value
Nc1ncnc2c1ncn2[C@@H]1O[C@H](COP(=O)(O)OP(=O)(O)OP(=O)(O)O)[C@@H](O)[C@H]1O [ATP],"radiolabelled ATPase assay, TLC",HsORC1-5,the ORC1 MGS mutation R720Q all show very little activity
same,"radiolabelled ATPase assay, TLC",[1],ORC1-R720Q abolished ATPase activity of the motor module
same,"X-ray crystal structure, 3.4 A",[2],"The HsORC motor module crystallized with ATP, and the nucleotides can be clearly seen"
same,ATPase activity,[3],renders the motor module hyperactive for ATPase activity
same,"radiolabelled ATPase assay, TLC",[4],A double mutant of the Walker-B motif of both ORC1 and ORC4 also abolished activity
same,"radiolabelled ATPase assay, TLC",[5],Disrupting the ORC1 Walker-B motif (ORC1 D620A) effectively abolished ATPase activity
